# Measurements from patent US20160367622A1, “AGONISTS OF GUANYLATE CYCLASE USEFUL FOR THE TREATMENT OF OPIOID INDUCED DYSFUNCTIONS” (priority 2013, published 2016).
# Positions of bridges follow the written chain, without caps; N, C: chain ends. Non-standard residues stand in square brackets, D forms with d. No end group written: not given here.
# T1: guanylate cyclase-C (GC-C) in rat jejunum (rat, UniProt P23897 23-1072)
# T1 sequence (looked up): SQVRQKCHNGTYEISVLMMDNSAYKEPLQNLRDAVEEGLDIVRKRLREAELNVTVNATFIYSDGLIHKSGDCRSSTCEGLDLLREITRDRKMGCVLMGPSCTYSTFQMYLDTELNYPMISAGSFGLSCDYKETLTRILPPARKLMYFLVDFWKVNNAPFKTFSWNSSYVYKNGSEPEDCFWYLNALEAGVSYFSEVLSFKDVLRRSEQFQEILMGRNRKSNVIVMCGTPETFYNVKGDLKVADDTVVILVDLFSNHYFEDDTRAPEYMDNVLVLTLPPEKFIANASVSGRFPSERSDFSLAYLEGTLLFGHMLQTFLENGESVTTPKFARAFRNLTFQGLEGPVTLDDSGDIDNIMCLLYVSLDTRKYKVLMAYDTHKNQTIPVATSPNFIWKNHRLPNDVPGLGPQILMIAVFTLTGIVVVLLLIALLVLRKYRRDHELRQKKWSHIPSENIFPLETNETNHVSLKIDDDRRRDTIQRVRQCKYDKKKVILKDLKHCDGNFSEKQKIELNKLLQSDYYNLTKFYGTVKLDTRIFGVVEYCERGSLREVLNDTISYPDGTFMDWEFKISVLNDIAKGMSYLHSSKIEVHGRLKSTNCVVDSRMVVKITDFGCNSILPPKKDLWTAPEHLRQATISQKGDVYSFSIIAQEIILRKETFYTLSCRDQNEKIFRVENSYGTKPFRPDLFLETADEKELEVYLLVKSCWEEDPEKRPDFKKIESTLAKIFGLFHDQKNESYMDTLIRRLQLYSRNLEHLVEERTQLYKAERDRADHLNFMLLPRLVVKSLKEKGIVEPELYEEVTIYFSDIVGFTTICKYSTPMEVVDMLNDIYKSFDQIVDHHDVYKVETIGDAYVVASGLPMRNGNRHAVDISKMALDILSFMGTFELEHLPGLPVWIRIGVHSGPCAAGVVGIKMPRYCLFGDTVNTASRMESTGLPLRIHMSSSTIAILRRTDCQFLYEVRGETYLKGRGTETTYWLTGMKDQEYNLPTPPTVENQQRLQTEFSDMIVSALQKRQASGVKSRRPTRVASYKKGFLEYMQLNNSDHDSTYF
# Tests used:
# [1] = test system: female Sprague-Dawley rats; test: morphine-induced delay in rat GI transit (charcoal meal); assay type: in vivo; settings: for GI transit slowed compared to vehicle controls: rats
# Method: (§1) Animals: All study procedures were conducted under a study outline approved by the Institutional Animal Care and Use Committee of MB Research Labs (Spinnerstown, Pa.) or Lampire Biological Laboratories (Pipersville, Pa.). Seven to eight week old female Sprague-Dawley rats [Crl:CD(SD)], weighing between ˜180-210 grams, were obtained from Charles River Laboratories and allowed to acclimate for a week. Animals were maintained on a 12 hour light-dark cycle. For intestinal tissue collection and evaluation of GI transit, rats were fasted for at least 18 hours before the experiment, with free access to water.
# (§2) The ability of opioids to delay GI transit in rats was tested by either administering 0 (vehicle) 0.25, 1 and 2.5 mg/kg of morphine or 0 (vehicle), 0.25, 2.5 and 5 mg/kg of methadone (1.5 ml/kg dose volume) by IP injection. Water served as vehicle control. Ten minutes later, a 2 mL charcoal meal consisting of 10% activated charcoal (Sigma-Aldrich, St. Louis, Mo.) and 10% gum Arabic (Sigma-Aldrich, St. Louis, Mo.) in water was administered via oral gavage. Rats were euthanized 10 min after the charcoal meal via IP injection of 150 mg/kg Beuthanasia-D solution (sodium pentobarbital, 390 mg/mL). The small intestine was removed and the total length from the pyloric sphincter to the ileocecal junction was recorded, as well as the distance traveled by the leading edge of the charcoal. Intestinal transit was determined by calculating the ratio (expressed as a percentage) of the distance between the pyloric sphincter and the leading edge of the charcoal to the distance between the pyloric sphincter and the ileocecal junction.
# To evaluate the ability of SP-333 to reverse morphine induced delayed GI transit, animals were administered 2.5 mg/kg of morphine by IP injection followed immediately by oral gavage of 0 (vehicle), 0.5, 2.5, 5 and 50 mg/kg of SP-333 (1.5 ml/kg dose volume). Water served as vehicle control. Charcoal meal was administered ten minutes later and animals were euthanized ten minutes after the charcoal meal and intestinal transit was calculated as described above.
# T84 cells monolayer = settings: for effect on SP-333 stimulation of Isc: T84 cells monolayer, opioid either pre or post SP-333 treatment; for effect on 1 μM SP-333-stimulated Isc: apical pre-treatment with 5 μM opioid for 5 min
# rat jejunum tissue = settings: for effect on SP-333 stimulation of Isc: rat jejunum tissue, opioid either pre or post SP-333 treatment; for effect on 1 μM SP-333-stimulated Isc / effect of inhibitor on SP-333-stimulated Isc: rat jejunum; for effect on 1 μM SP-333-stimulated Isc: apical pre-treatment with 5 μM opioid for 5 min; for effect of inhibitor on SP-333-stimulated Isc: inhibitor pretreatment 5 min, then 1 μM SP-333
# [2] = test system: female Sprague-Dawley rats; test: methadone-induced delay in rat GI transit (charcoal meal); assay type: in vivo
# Method: as §1, §2
# To evaluate the ability of SP-333 to reverse methadone induced delayed GI transit, animals were administered 2.5 mg/kg of methadone by IP injection. Ten minutes later, an oral gavage of 0 (vehicle), 0.1, 0.5, 2.5, 5 and 50 mg/kg of SP-333 (1.5 ml/kg dose volume) was administered followed immediately by a 2 mL oral gavage of the charcoal meal. Ten minutes after the charcoal meal, animals were euthanized and intestinal transit was calculated as described above.
# [3] = test system: female Sprague-Dawley CD rats; test: GI transit delay induced by repeated methadone administration in rats; assay type: in vivo, rat; settings: after 16 doses (once daily; 7 doses at 5 mg/kg and 9 doses at 2.5 mg/kg)
# Method: The ability of SP-333 to alleviate GI transit delay induced by repeated methadone administration was also evaluated in the similar manner. Female Sprague-Dawley CD rats 7 to 8 weeks of age (n=7/group) received via IP injection 16 doses of methadone (once daily; 7 doses @ 5 mg/kg and 9 doses @ 2.5 mg/kg). Ten minutes following each methadone dose, each group received an oral gavage of vehicle, 2.5, and 5 mg/kg of SP-333. At the end of the dosing regimen, animals were fasted overnight and GI transit was evaluated as described above.
# [4] = test system: female Sprague-Dawley CD rats; test: methadone-induced constipation in rats (fecal output); assay type: in vivo, rat; settings: for average number of fecal pellets over 4 h, lower compared to the vehicle group: light cycle
# Method: To identify the methadone dose that induces constipation in rats, female Sprague-Dawley CD rats 7 to 8 weeks of age (n=6/group) were administered 0 (vehicle), 2.5, 5, and 7.5 mg/kg of methadone (1.5 ml/kg dose volume) by IP injection once a day for 5 days. Fecal pellets were collected at 4 h intervals during the light cycle and average number of pellets was recorded for each group during the course of the study following daily dose administrations of methadone.
# To evaluate the ability of SP-333 to relieve methadone-induced constipation, female Sprague-Dawley CD rats 7 to 8 weeks of age (n=7/group) were administered 5 mg/kg of methadone (or vehicle) each day for 7 days via IP injection to induce constipation. Ten minutes following the IP dose each day, an oral gavage of 2.5, and 5 mg/kg of SP-333 or vehicle (buffer) was administered. Fecal pellets were collected at 4 h intervals during the light cycle and average number of pellets recorded for each group during the course of the study following daily administration of vehicle, methadone or combination of methadone and SP-333.
# [5] = test system: female Sprague-Dawley CD rats; test: as above; assay type: in vivo, rat
# [6] = target: guanylate cyclase-C (GC-C) on T84 cells (human (T84, human carcinoma cell line), UniProt P25092 24-1073); test: cell-based or functional assay
# guanylate cyclase-C (GC-C) on T84 cells, sequence (P25092 24-1073): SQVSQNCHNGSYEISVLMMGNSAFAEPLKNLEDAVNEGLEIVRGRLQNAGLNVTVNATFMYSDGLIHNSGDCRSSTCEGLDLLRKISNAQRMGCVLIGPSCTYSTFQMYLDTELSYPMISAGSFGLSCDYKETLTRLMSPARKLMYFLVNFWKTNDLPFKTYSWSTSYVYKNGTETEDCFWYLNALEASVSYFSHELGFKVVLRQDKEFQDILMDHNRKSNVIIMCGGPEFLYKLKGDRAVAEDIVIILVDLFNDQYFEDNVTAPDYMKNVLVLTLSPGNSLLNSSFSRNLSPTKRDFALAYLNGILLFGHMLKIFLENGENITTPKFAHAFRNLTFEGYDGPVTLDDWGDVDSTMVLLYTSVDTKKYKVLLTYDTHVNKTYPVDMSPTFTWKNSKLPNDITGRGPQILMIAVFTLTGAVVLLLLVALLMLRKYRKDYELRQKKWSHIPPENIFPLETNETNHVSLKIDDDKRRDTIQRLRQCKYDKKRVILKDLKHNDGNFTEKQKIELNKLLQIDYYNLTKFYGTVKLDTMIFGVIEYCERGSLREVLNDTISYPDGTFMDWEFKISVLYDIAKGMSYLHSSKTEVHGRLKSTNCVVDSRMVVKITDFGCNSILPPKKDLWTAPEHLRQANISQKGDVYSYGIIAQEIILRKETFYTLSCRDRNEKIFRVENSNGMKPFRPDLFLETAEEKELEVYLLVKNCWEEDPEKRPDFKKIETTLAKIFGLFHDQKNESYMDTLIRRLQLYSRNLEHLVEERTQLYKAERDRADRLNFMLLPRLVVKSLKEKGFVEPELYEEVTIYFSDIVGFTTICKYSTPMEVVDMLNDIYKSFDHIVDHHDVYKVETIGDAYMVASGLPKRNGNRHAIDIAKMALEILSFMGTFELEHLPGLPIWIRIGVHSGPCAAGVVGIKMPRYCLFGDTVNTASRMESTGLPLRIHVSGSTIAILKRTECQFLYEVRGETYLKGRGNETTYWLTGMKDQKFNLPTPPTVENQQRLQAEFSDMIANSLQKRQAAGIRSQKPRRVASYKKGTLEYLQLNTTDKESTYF
# [7] = target: T1, guanylate cyclase-C (GC-C) in rat …; test: cell-based or functional assay
molecule,measurement,setting,value
CN1CC[C@]23c4c5ccc(O)c4O[C@H]2[C@@H](O)C=C[C@H]3[C@H]1C5 [morphine],GI transit,[1]; 2.5 mg/kg morphine IP alone (vs 53% in vehicle treated),23%
same,GI transit slowed compared to vehicle controls,[1]; single dose 0.25 mg/kg IP,52%
same,GI transit slowed compared to vehicle controls,[1]; single dose 1.0 mg/kg IP,56%
same,effect on SP-333 stimulation of Isc,T84 cells monolayer,did not alter stimulation of Isc
same,effect on 1 μM SP-333-stimulated Isc,T84 cells monolayer; T84 cells,negligible effect
same,effect on SP-333 stimulation of Isc,rat jejunum tissue,did not alter stimulation of Isc
same,effect on 1 μM SP-333-stimulated Isc,rat jejunum tissue,negligible effect
CCC(=O)C(CC(C)N(C)C)(c1ccccc1)c1ccccc1 (stereo not drawn) [methadone],GI transit,[2]; 2.5 mg/kg methadone IP alone (vs 55% in vehicle treated),28%
same,GI transit,"[2]; 0.25, 2.5 and 5 mg/kg IP, rats",statistically significant reduction in GI transit
same,rat small intestine transit,[3],significantly delayed rat small intestine transit
same,"average number of fecal pellets over 4 h, lower compared to the vehicle group",[4]; 2.5 mg/kg IP once daily for 5 days,29%
same,"average number of fecal pellets over 4 h, lower compared to the vehicle group",[4]; 5 mg/kg IP once daily for 5 days,77%
same,"average number of fecal pellets over 4 h, lower compared to the vehicle group",[4]; 7.5 mg/kg IP once daily for 5 days,54%
same,"average number of fecal pellets, less vs vehicle control","[4]; methadone alone, 5.0 mg/kg IP daily 7 days then 2.5 mg on days 8-16",82%
same,effect on SP-333 stimulation of Isc,T84 cells monolayer,did not alter stimulation of Isc
same,effect on 1 μM SP-333-stimulated Isc,T84 cells monolayer; T84 cells,no effect
same,effect on SP-333 mediated enhancement in Isc,"T84 cells monolayer; T84 monolayer, 1 μM SP-333 then opioid at 20 μM, FIG. 5B",inhibited
same,effect on SP-333 stimulation of Isc,rat jejunum tissue,did not alter stimulation of Isc
same,effect on 1 μM SP-333-stimulated Isc,rat jejunum tissue,no effect
same,"average number of fecal pellets over 4 h, lower compared to the vehicle group","[5]; 10 mg/kg IP once daily for 5 days, light cycle",63%
same,average number of fecal pellets,[5]; methadone alone 2.5 mg/kg IP once daily for 9 days,significant decrease in the average number of fecal pellets
Nc1nc2c(nc(Sc3ccc(Cl)cc3)n2[C@@H]2O[C@@H]3COP(=O)(O)O[C@H]3[C@H]2O)c(=O)[nH]1 [CPT-cGMP],stimulation of Isc across T84 cell monolayers,T84 cells monolayer,stimulate Isc
Nc1ncnc2c1nc(Sc1ccc(Cl)cc1)n2[C@@H]1O[C@@H]2COP(=O)(O)O[C@H]2[C@H]1O [CPT-cAMP],stimulation of Isc across T84 cell monolayers,T84 cells monolayer,stimulate Isc
[Cl][Cd][Cl] [CdCl2],decrease in SP-333-stimulated Isc,"T84 cells monolayer; T84 cells, 300 μM, 1 μM SP-333",No appreciable decrease
same,effect of inhibitor on SP-333-stimulated Isc,rat jejunum tissue,minimal effect
COC(=O)[C@@]1(OC)C[C@H]2O[C@]1(C)n1c3ccccc3c3c4c(c5c6ccccc6n2c5c31)C(=O)N(C)C4 [PKG-II inhibitor],suppression of relative SP-333-stimulated Isc,"T84 cells monolayer; T84 cells, 4 μM inhibitor, 1 μM SP-333",approximately 35%
O=C(O)c1ccc(/C=C2\SC(=S)N(c3cccc(C(F)(F)F)c3)C2=O)cc1 [CFTRinh172],suppression in SP-333-stimulated Isc,"T84 cells monolayer; T84 cells, 10 μM inhibitor, vs 1 μM SP-333 alone",80%
same,effect of inhibitor on SP-333-stimulated Isc,rat jejunum tissue,less compared to that detected in T84 cells
"[dN]DECELCVNVACTGC[dL] (disulfide 4-12, 7-15) [SP-333]","EC50 of stimulation of Isc across T84 cells monolayer, apical treatment",[6],215 nM
same,"EC50 of stimulation of Isc across rat jejunum tissue, apical treatment",[7],287 nM
